Experimental data: ChEMBL document CHEMBL1155678, “Artoindonesianin C, a new xanthone derivative from Artocarpus teysmanii” (J Nat Prod, 2000)

Legend:
[1] = tested on: Bombyx mori; test: Inhibition of leucine uptake in Bombyx mori larval midgut brush border membrane vesicles at 0.2 uM; format: functional
[2] = Toxicity against Artemia salina; format: organism-based; conditions: in vivo

## C=C(C)c1cc2c(=O)c3c(O)cc4c(c3oc2c2c1C(O)(C(=O)OC)CC2=O)C=CC(C)(C)O4 (configuration not stated) [ARTOINDONESIANIN C]
[1]
  inhibition: 20%
[2]
  LC50: > 500 µg/mL
